From patent publication US20030049712A1, “Method of detecting protease activity in a cell” (priority 2001, published 2003)

Test system: caspase-3
Assay: Caspase3 assay using an NES-protease cleavage-NLS fusion protein (EYFP translocation)
Assay type: cell-based
Conditions: 3T3 cells transiently transfected with pCaspase3-sensor Vector; staurosporin 700 nM; detected 4 hours post induction; untreated cells: EYFP in the cytoplasm
Text: A construct was generated that includes a nucleotide sequence encoding a fusion protein including, in order from amino to carboxyl terminus, an NES of MAP-kinase-kinase (NLVDLQKKLEELELDEQQ; SEQ ID NO: 23); a recognition site for caspase-3 (DEVD; SEQ ID NO: 22) bordered by a stretch of amino acids found in the cleavage site of the endogenous caspase-3 substrate poly (ADP-ribose) polymerase (PARP; Nicholson et al. (1995) Nature 376:37-43; and Tewari et al. (1995) Cell 81:801-809), such that the cleavage recognition site has the sequence KRKGDEVDGVDF (SEQ ID NO: 24); an enhanced yellow fluorescent protein (EYFP); and a three tandem repeat of the NLS from simian virus large T antigen. In this construct, the NES is dominant over the NLS.
The construct was transfected into mammalian cells. Specifically, 3T3 cells were grown on coverslips, transiently transfected with the pCaspase3-sensor Vector which is encodes the above described fusion protein and is further illustrated in Clontechniques (April, 2002), and grown for 24 hours. Apoptosis was induced using staurosporin (700 nM) and caspase-3 activity was detected 4 hours post induction. Cells were fixed with 3% paraformaldehyde and photomicrographs were taken using a Zeiss microscope.

CN[C@@H]1C[C@H]2O[C@@](C)([C@@H]1OC)n1c3ccccc3c3c4c(c5c6ccccc6n2c5c31)C(=O)NC4 [staurosporin]
caspase-3 activity read out as subcellular location of EYFP: the EYFP was detected in the nucleus
